Test results taken from patent publication US20220241306A1, “CHITIN ANALOGS FOR THE TREATMENT OF KIDNEY DISEASES” (AyuVis Research, Inc., priority 2021, published 2022).

Assays:
glycerol-induced AKI = test: Mouse model for acute kidney injury (glycerol-induced): serum creatinine, BUN, proteinuria; type: in vivo; settings: for blood urea nitrogen (BUN) level in serum / serum creatinine level: glycerol IM, compound 2 (5 mg/kg) or compound 8 (2.5 mg/kg) IP at 1, 6 and 24 hrs post glycerol, vs glycerol controls
Excerpt: Mouse model for acute kidney injury. Eight to ten weeks old male C57 BL/6J mice (n=5-7 per group, male and female) were utilized to induce acute kidney injury. Animals were randomized before treatment. Littermates or co-housed animals were chosen for this study. The mice were kept without water but unlimited access to chow for −24 hrs. In first study, nine ml per kg body weight of 1:1 diluted glycerol was intramuscularly injected followed by intraperitoneal administration of either compound 2 (5 mg/kg) or compound 8 (2.5 mg/kg body weight) at 1, 6 and 24 hrs post glycerol dosing. In a second study, AVR-48 was injected either at 5.0 mg/kg/dose or 10 mg/kg/dose IP after 3 h of glycerol administration and was dosed 2/day for 3 days (total 7 doses) and survival was monitored till 8 days. Proteinuria was measured in urine at 24 hrs before sacrifice of the animals by an albustix proteinuria strip. The mice were sacrificed, and bloods were collected by heart puncture. Serum samples were stored at −80° C. for future use. Kidney, spleens, lungs and liver were immediately fixed in 10% buffered formalin for histopathological analysis. Part of the kidney were snap frozen for RNA isolation. To evaluate the effect of AVR-48 and AVR-123 on acute kidney injury, the inventors measured the vital parameters of kidney injury, i.e., levels of creatinine and blood urea nitrogen (BUN) in the serum of animals treated with AVR-48 and AVR-123 along with glycerol treated positive controls. PBS treated animals were considered as sham. […] N=4-7 mice. *p=0.02, **p=0.00′7, and ***p=0.0004, One-way ANOVA, Dunnett's multiple comparison test. […] N=4-7 mice, each sample run in duplicates. ****p<0.0001, One-way ANOVA, Dunnett's multiple comparison test.

TNF-α = test: RT-PCR of kidney tissue, glycerol-treated mice: TNF-α; type: in vivo, mouse; settings: whole kidney tissue, RT-PCR vs GAPDH
Excerpt: (§1) Mouse model for acute kidney injury. Eight to ten weeks old male C57 BL/6J mice (n=5-7 per group, male and female) were utilized to induce acute kidney injury. Animals were randomized before treatment. Littermates or co-housed animals were chosen for this study. The mice were kept without water but unlimited access to chow for −24 hrs. In first study, nine ml per kg body weight of 1:1 diluted glycerol was intramuscularly injected followed by intraperitoneal administration of either compound 2 (5 mg/kg) or compound 8 (2.5 mg/kg body weight) at 1, 6 and 24 hrs post glycerol dosing. In a second study, AVR-48 was injected either at 5.0 mg/kg/dose or 10 mg/kg/dose IP after 3 h of glycerol administration and was dosed 2/day for 3 days (total 7 doses) and survival was monitored till 8 days.
(§2) The mice were sacrificed, and bloods were collected by heart puncture. Serum samples were stored at −80° C. for future use. Kidney, spleens, lungs and liver were immediately fixed in 10% buffered formalin for histopathological analysis. Part of the kidney were snap frozen for RNA isolation.
(§3) RNA isolation and RT-PCR. RNA was isolated from snap-frozen kidney samples by using RNA plus micro kit (Qiagen) according to manufacturer's instruction. c-DNA were prepared by Quanta-Bio-C-DNA kit. […] The expression of various genes was analyzed in comparison to GAPDH. […]

IL-1β = test: RT-PCR of kidney tissue, glycerol-treated mice: IL-1β; type: in vivo, mouse; settings: whole kidney tissue, RT-PCR vs GAPDH
Excerpt: as §1, §2, §3

IL-10 = test: RT-PCR of kidney tissue, glycerol-treated mice: IL-10; type: in vivo, mouse
Excerpt: as §1, §2
RNA isolation and RT-PCR. […] The expression of various genes was analyzed in comparison to GAPDH.
FIGS. 6A and 6B are graphs that show the level of the anti-inflammatory cytokine IL-10 in the whole kidney tissue (FIG. 6A) and in kidney cortex tissue (FIG. 6B) with or without AVR-48 treatment as determined by RT-PCR experiment. […]

hemeoxygenase-1 (OH-1) = test: RT-PCR of kidney cortical tissue, glycerol-treated mice: hemeoxygenase-1; type: in vivo, mouse; settings: kidney cortical tissue (FIG. 7A); vs glycerol
Excerpt: as §1, §2, §3

NGAL = test: RT-PCR of kidney cortical tissue, glycerol-treated mice: NGAL; type: in vivo, mouse; settings: kidney cortical tissue (FIG. 7B); vs glycerol
Excerpt: as §1, §2, §3

cyclooxygenase-2 (Cox-2) = test: RT-PCR of whole kidney tissue, glycerol-treated mice: Cox-2 mRNA; type: in vivo, mouse; settings: vs glycerol injection
Excerpt: as §1, §2
RNA isolation and RT-PCR. RNA was isolated from snap-frozen kidney samples by using RNA plus micro kit (Qiagen) according to manufacturer's instruction. c-DNA were prepared by Quanta-Bio-C-DNA kit. […] The expression of various genes was analyzed in comparison to GAPDH.

[1] = test system: glycerol induced rhabdomyolysis model; test: Survival in glycerol induced rhabdomyolysis model; type: in vivo, mouse; settings: 10 mg/kg/dose IP from 3 h after glycerol, 2/day for 3 days; monitored till 8 days; vs glycerol+saline, p<0.05
Excerpt: as §1
FIG. 9 is a graph showing survival curve of the mouse in a glycerol induced rhabdomyolysis model when dosed after 3 h of glycerol administration.

[2] = test system: glycerol induced damage of kidney tissues; test: H/E staining of mouse whole kidney tissue after glycerol; type: in vivo; settings: N=5
Excerpt: as §1, §2

[3] = test system: mechanical ventilator induced kidney injury; test: Preterm lamb model of mechanical ventilator induced kidney injury: renal cortical histology; type: in vivo; settings: 3.0 mg/Kg twice daily IV during mechanical ventilation, vs vehicle (saline)
Experimental: (§4) A unique PT lamb model, developed by Dr. Albertine (University of Utah), was used to emulate the clinical setting for PT human infants with respiratory failure related to premature birth before the lungs are mature enough to support extra-uterine life.
(§5) A dose range-finding study was conducted with the goal of treating 2-3 PT lambs with either a vehicle control or AVR-48 (compound 8, 3mg/kg/dose) by twice daily intravenous infusions during 6 to 7 days of mechanical ventilation, followed by transition to noninvasive respiratory support (NIS) for 3 days, for a total of 10 days of management of these PT lambs. AVR-48 was not given during the period of noninvasive respiratory support to assess short-term persistence of effect of AVR-48. Detailed methods have been published previously by Reyburn et al. and Null et al (Reyburn, Li et al. 2008, Null, Alvord et al. 2014), relevant portions incorporated herein by reference. All protocols have been adhered to APS/NIH guidelines for animal research and have been approved by the Institution Animal Care and Use Committees (IACUC) at the University of Utah.
FIGS. 11A and 11B compare renal cortical histology from the preterm lamb treated with 3.0 mg/Kg of AVR-48 (FIG. 11A) versus the vehicle-treated lamb (saline; FIG. 11B). Renal cortical histology is normal in the 3.0 mg/Kg AVR-48-treated lamb. […]

[4] = test system: mechanical ventilator induced kidney injury; test: Preterm lamb model of mechanical ventilator induced kidney injury: BUN; type: in vivo; settings: day 10, after 7 days of treatment on invasive mechanical ventilator
Experimental: as §4, §5
Fetal lamb is term lamb control. N=2-3, **p<0.01, *** student t test (2-tailed), Dunnett's multiple comparison test.

Row | SMILES | blood urea nitrogen (BUN) level in serum (glycerol-induced AKI) | serum creatinine level (glycerol-induced AKI) | total proteinuria level (glycerol-induced AKI; urine at 24 hrs, albustix proteinuria strip, vs glycerol treated mice) | level of TNF-α in kidney tissue (TNF-α) | level of IL-1β in kidney tissue (IL-1β) | level of IL-10 in kidney cortex tissue (IL-10; kidney cortex tissue, RT-PCR (FIG. 6B), vs glycerol treated group) | level of IL-10 in whole kidney tissue (IL-10; whole kidney tissue, RT-PCR (FIG. 6A)) | level of hemeoxygenase-1 (OH-1) in kidney cortical tissue (hemeoxygenase-1 (OH-1)) | level of NGAL in kidney cortical tissue (NGAL) | Cox-2 mRNA level in whole kidney tissue (cyclooxygenase-2 (Cox-2)) | survival [1] | H/E staining of whole kidney tissue [2] | renal cortical histology [3] | BUN at day 10 [4]
1 | CC(=O)N[C@@H]1C(Oc2ccc([N+](=O)[O-])cc2)OC(CO)C(O)C1O (stereo partly shown) [AVR-48] | significantly reduced | significantly reduced | decreased proteinuria levels | significantly decreased the level | significantly decreased the level | decreased the level and brought it back close to normal | significantly high | decreased the level significantly | decreased | decreased significantly | significant difference in survival | significant protection of kidney tissues | normal | decreased BUN
2 | CC(=O)NC1[C@H](Oc2ccc(C(=O)N[C@@H]3OC(COC(C)=O)[C@@H](OC(C)=O)[C@H](OC(C)=O)C3NC(C)=O)cc2)OC(CO)[C@@H](O)[C@@H]1O (stereo partly shown) [AVR-123] | significantly reduced | significantly reduced |  |  |  |  |  |  |  |  |  |  |  | 
